Results on 4 compounds are retold here after patent US9657018B2, “Antagonists acting at multiple prostaglandin receptors for the treatment of inflammation” (Allergan, Inc., priority 2014, dated 2017).

Assay type in all cases: cell-based
Assay [1] has as its target T1, human prostanoid EP1 receptor (Homo sapiens, UniProt P34995).
T1 construct: expressed in transfected cells
T1 sequence (P34995 1-402): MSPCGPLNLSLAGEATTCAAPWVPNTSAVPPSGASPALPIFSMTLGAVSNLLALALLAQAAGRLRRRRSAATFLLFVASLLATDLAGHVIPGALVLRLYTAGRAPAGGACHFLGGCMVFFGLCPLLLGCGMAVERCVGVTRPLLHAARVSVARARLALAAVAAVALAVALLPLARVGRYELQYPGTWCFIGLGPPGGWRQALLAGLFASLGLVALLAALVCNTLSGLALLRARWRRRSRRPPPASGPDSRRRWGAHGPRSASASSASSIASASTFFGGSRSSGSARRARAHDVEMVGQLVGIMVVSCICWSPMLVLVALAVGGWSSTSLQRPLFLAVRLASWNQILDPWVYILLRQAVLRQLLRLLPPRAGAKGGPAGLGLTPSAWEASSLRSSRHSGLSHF
Description: FLIPR Ca2+ signaling antagonist assay, EP1 receptor stable cell line. To be noted: human recombinant EP1 in HEK-293 EBNA cells; standard agonist PGE2; NA = no antagonism or Kb>=10,000 nM. As for the experimental part:
(§1) The above compounds were tested for PG antagonist activity as follows using human recombinant prostanoid receptor (DP1, EP1-4, FP, IP and TP) stable cell lines:
(§2) In order to measure the response of Gs and Gi coupled prostanoid receptors as a Ca^2+ signal, chimeric G protein cDNAs were used. Stable cell lines over-expressing human prostanoid DP1, EP1-4, FP, IP, and TP receptors were established as follows:
(§3) Briefly, human prostanoid DP1, EP2, and EP4 receptor cDNAs were co-transfected with chimeric Gqs cDNA containing a haemagglutanin (HA) epitope; human prostanoid EP3 receptors were co-transfected with chimeric Gqi-HA; human EP1, FP, IP, and TP receptor cDNAs were expressed with no exogenous G-proteins. Gqs and Gqi chimeric cDNAs (Molecular Devices, Sunnyvale, Calif., U.S.A.), as well as cDNAs of prostanoid receptors, were cloned into a pCEP4 vector with a hygromycin B selection marker. Transfection into HEK-293 EBNA (Epstein-Barr virus nuclear antigen) cells was achieved by the FuGENE 6 transfection Reagent (Roche Applied Science, Indianapolis, Ind., USA). Stable transfectants were selected according to hygromycin resistance. Because Gqs and Gqi contained an HA epitope, G-protein expression was detected by Western blotting analysis using anti-mouse HA monoclonal antibody and horseradish peroxidase (HRP)-conjugated secondary antibody, while functional expression of prostanoid receptors was detected by FLIPR screening (Matias et al., 2004). These stable cell lines were validated using previously published antagonists at 10 μM against serial dilutions of standard agonists by FLIPR functional assays for Ca^2+ Signaling (as described below).
(§4) Ca^2+ signaling studies were performed using a FLIPR TETRA system (Molecular Devices, Sunnyvale, Calif., USA) in the 384-format. This is a high-throughput instrument for cell-based assays to monitor Ca^2+ signaling associated with GPCRs and ion channels. Cells were seeded at a density of 5×10^4 cells/well in BioCoat poly-D-lysine coated, black wall, clear bottom 384-well plates (BD Biosciences, Franklin lakes, NJ, USA) and allowed to attach overnight in an incubator at 37° C. The cells were then washed twice with HBSS-HEPES buffer (Hanks' balanced salt solution without bicarbonate and phenol red, 20 mM HEPES, pH 7.4) using an ELx405 Select CW Microplate Washer (BioTek, Winooski, Vt., USA). After 60 min of dye-loading in the dark using the Ca^2+-sensitive dye Fluo-4AM (Invitrogen, Carlsbad, Calif., USA), at a final concentration of 2×10^−6M, the plates were washed 4 times with HBSS-HEPES buffer to remove excess dye and leaving 50 μl of buffer in each well. The plates were then placed in the FLIPR TETRA instrument and allowed to equilibrate at 37° C. AGN-211377 was added in a 25 μl volume to each well to give final concentrations of 0.1 μl. M, 0.4M, 1 μM, 3 μl. M, 10 μl. M, and 30 μl. M; or 0.067 μM, 0.4M, 0.67 μM, and 1 μM for cells over-expressing TP receptors. After 4.5 minutes, a 7-point serial dilution of the standard agonist for the corresponding receptor, in a 25 μl volume was injected at the final concentrations from 10^−11M to 10^−5M in 10-fold serial dilution increments for cells expressing human recombinant DP1, EP1, EP2, EP3, EP4, FP, and IP receptors. The dose range for the standard agonist for human recombinant TP receptors was from 10^−12M to 10^−6M. HBSS-HEPES buffer was used as the negative control for the standard agonists. Cells were excited with LED (light emitting diode) excitation at 470-495 nm and emission was measured through an emission filter at 515-575 nm. Assay plates were read for 3.5 minutes using the FLIPR^TETRA. The peak increase in fluorescence intensity was recorded for each well. On each plate, negative controls, dose response of positive controls, and co-treatments of antagonist-agonist for each dose were in triplicates. Standard agonists were as follows: DP=BW 245C, EP1-EP4=PGE2, FP=17-phenyl-PGF2a, IP=Cicaprost, and TP=U-46619. […]

For assay [2], the target named is T2, human prostanoid TP receptor (Homo sapiens, UniProt P21731).
T2 construct: expressed in transfected cells
T2 sequence (P21731 1-343): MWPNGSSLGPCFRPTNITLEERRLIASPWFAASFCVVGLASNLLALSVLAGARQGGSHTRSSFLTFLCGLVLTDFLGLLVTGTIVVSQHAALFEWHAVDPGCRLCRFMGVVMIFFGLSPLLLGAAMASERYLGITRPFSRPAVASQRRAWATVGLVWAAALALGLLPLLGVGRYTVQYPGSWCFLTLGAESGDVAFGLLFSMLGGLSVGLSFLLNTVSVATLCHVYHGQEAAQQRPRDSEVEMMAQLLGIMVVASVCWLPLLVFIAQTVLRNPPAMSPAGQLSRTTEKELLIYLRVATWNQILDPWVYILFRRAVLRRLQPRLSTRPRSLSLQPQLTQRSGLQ
Description: FLIPR Ca2+ signaling antagonist assay, TP receptor stable cell line. To be noted: human recombinant TP in HEK-293 EBNA cells; standard agonist U-46619; NA = no antagonism or Kb>=10,000 nM. The method, then: as §1, §2, §3, §4

Assay [3] concerns the target T3, human prostanoid EP4 receptor (Homo sapiens, UniProt P35408).
T3 construct: expressed in transfected cells
Description: FLIPR Ca2+ signaling antagonist assay, EP4 receptor stable cell line. The note with it: human recombinant EP4 + chimeric Gqs in HEK-293 EBNA cells; standard agonist PGE2; NA = no antagonism or Kb>=10,000 nM. The method, then:
as §1, §2, §3, §4

In assay [4] the target is T4, human prostanoid EP2 receptor (Homo sapiens, UniProt P43116).
T4 construct: expressed in transfected cells
T4 sequence (P43116 whole entry): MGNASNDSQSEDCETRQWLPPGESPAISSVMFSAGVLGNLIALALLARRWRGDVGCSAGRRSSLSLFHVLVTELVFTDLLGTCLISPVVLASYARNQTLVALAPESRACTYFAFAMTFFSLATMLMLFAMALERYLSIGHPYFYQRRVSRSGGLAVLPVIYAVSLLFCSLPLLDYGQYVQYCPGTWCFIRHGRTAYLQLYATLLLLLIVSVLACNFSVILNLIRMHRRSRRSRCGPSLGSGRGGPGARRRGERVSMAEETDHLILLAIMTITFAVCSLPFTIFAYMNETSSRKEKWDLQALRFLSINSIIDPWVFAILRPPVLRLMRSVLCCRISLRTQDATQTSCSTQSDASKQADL
Description: FLIPR Ca2+ signaling antagonist assay, EP2 receptor stable cell line. To be noted: human recombinant EP2 + chimeric Gqs in HEK-293 EBNA cells; standard agonist PGE2; NA = no antagonism or Kb>=10,000 nM. As for the experimental part:
as §1, §2, §3, §4

T3 sequence (P35408 whole entry): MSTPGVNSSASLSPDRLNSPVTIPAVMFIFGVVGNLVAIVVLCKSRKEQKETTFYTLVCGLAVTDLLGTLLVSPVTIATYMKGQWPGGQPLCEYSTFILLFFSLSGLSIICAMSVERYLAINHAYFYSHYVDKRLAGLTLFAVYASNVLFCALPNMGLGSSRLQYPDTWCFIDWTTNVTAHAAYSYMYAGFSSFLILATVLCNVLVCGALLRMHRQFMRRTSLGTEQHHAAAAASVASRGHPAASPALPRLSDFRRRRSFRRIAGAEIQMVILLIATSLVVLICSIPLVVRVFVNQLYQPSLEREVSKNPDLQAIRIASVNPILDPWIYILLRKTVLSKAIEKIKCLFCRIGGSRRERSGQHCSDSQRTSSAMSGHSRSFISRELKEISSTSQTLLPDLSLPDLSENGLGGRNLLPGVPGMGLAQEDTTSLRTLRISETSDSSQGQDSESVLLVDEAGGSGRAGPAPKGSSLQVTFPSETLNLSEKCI

A word on the Kb: it is the equilibrium dissociation constant of an antagonist, usually derived from a functional assay. On to `CC(C)Cn1ncc2cc(OC(F)(F)F)cc(Cn3cnc4cc(C(=O)O)ccc43)c21` [Compound 56, 1-(1-Isobutyl-5-trifluoromethoxy-1H-indazol-7-ylmethyl)-1H-benzoimidazole-5-carboxylic acid], for which the Kb in assay [1] is 9 µM; in assay [2], 30 nM; in assay [3] it was 6 nM; in assay [4], greater than 10 µM.

Consider `CC(C)Cn1ncc2cc(Cl)cc(Cc3ncc4cc(C(=O)O)ccn34)c21` [Compound 61, 3-[(5-Chloro-1-isobutyl-indazol-7-yl)methyl]imidazo[1,5-a]pyridine-7-carboxylic acid], for which the antagonist equilibrium constant (Kb) in assay [1] is greater than 10 µM; in assay [2] it was greater than 10000 nM; in assay [3], 200 nM; in assay [4], greater than 10 µM.

Regarding `CC(C)Cn1ncc2cc(Cl)cc(Cn3nc(N)c4cc(C(=O)O)ccc43)c21` [Compound 68, 3-Amino-1-[(5-chloro-1-isobutyl-indazol-7-yl)methyl]indazole-5-carboxylic acid], the Kb in assay [1] is greater than 10 µM; in assay [2], 1300 nM; in assay [3] it was 60 nM; in assay [4] it was greater than 10 µM.

For `CNc1nn(Cc2cc(Cl)cc3cnn(CC(C)C)c23)c2ccc(C(=O)O)cc12` [Compound 70, 1-[(5-Chloro-1-isobutyl-indazol-7-yl)methyl]-3-(methylamino)indazole-5-carboxylic acid], the Kb is 2.3 µM in assay [1], 300 nM in assay [2], 1 nM in assay [3] and 7 µM in assay [4].
